Data published in patent publication US20260240835A1 (priority 2022, published 2026).
Structures can show the parent of a compound that is named as a salt. Where two headings read alike, the source gives them in different places.

Legend:
[1] = Co-administration of paroxetine and the subject combination (drug interaction)
[2] = Pharmacokinetics in CYP2D6 poor metabolizers versus extensive metabolizers; conditions: 12 poor metabolizers treated with the subject combination in efficacy trials
From the text: Approximately 7% to 10% of Caucasians and 3% to 8% of African Americans lack the capacity to metabolize CYP2D6 substrates and are classified as poor metabolizers.
(§1) References used are the matched healthy subjects for renal and hepatic impairment studies, and extensive or ultra-extensive CYP2D6 metabolizers respectively.

[3] = Pharmacokinetics in moderate renal impairment versus matched controls
From the text: as §1

[4] = Steady state pharmacokinetics after administration of the subject combination; conditions: for dose proportionality of changes in AUC and Cmax at steady state: co-administered with bupropion; for AUC0-12 relative to that of bupropion / Cmax relative to that of bupropion / time post-dose at which Cmax of the metabolite occurs: after administration of the subject combination; for apparent elimination half-life of metabolite: subject combination
[5] = Pharmacokinetics in moderate hepatic impairment versus matched healthy subjects; assay type: in vivo, human
From the text: Data are GMRs and 90% Cls. References used are the matched healthy subjects for renal and hepatic impairment studies, and extensive or ultra-extensive CYP2D6 metabolizers respectively.

[6] = Effect of food on pharmacokinetics of the subject combination
[7] = human, in vivo
[8] = tested on: patients with treatment-resistant depression or MDD with acute suicidal ideation or behavior; conditions: cited from earlier work
[9] = Solubility of the powder in water
[10] = 20 mg paroxetine, tablet of Example 4 twice daily, vs tablet without paroxetine
[11] = 7 subjects with moderate (GFR 30-60 mL/min) renal impairment vs 6 matched controls
[12] = given as the subject combination

Structure (SMILES): COc1ccc2c(c1)[C@]13CCCC[C@@H]1[C@H](C2)N(C)CC3 [dextromethorphan]
- increase in AUC0-12 with concomitant paroxetine [1, 10]: 2.69 fold
- increase in Cmax with concomitant paroxetine [1, 10]: 2.38 fold
- change in overall exposure caused by paroxetine ([1]; 29 healthy volunteers, paroxetine co-administered with the subject combination): 2.5 fold
- steady state plasma concentrations compared with non-poor metabolizers [2]: generally higher
- increase in exposure versus matched controls with normal renal function [3, 11]: approximately 2 fold
- reduction in clearance versus matched controls with normal renal function [3, 11]: 50%
- dose proportionality of changes in AUC and Cmax at steady state ([4]; varying doses of bupropion (75 to 150 mg)): less than dose-proportional
- dose proportionality of changes in AUC and Cmax at steady state ([4]; varying doses of dextromethorphan (30 to 60 mg)): greater than dose-proportional
- increase in mean elimination half-life as compared to dextromethorphan given without bupropion ([4]; following 8 days of administration of the subject combination in extensive metabolizers): approximately 3 fold
- accumulation ratio at steady state based on AUC0-12 [4, 12]: about 32
- accumulation ratio at steady state based on Cmax [4, 12]: about 20
- AUC0-12 and Cmax compared with healthy patients ([5]; patients having moderate hepatic impairment (Group 2)): not significantly different
- change in Cmax when administered with food [6]: unchanged
- decrease in AUC0-12 when administered with food [6]: 14%

Structure (SMILES): CC(NC(C)(C)C)C(=O)c1cccc(Cl)c1 (racemic) [bupropion]
- increase in exposure versus matched controls with normal renal function ([3]; human, in vivo): approximately 2 fold
- reduction in clearance versus matched controls with normal renal function ([3]; human, in vivo): 50%
- AUC0-12 and Cmax compared with healthy patients ([5]; human, in vivo): not significantly different

Structure (SMILES): Fc1ccc([C@@H]2CCNC[C@H]2COc2ccc3c(c2)OCO3)cc1 [paroxetine]
- increase in overall exposure when co-administered with the subject combination [7]: 1.2 fold

Structure (SMILES): C[C@H](NC(C)(C)C)[C@@H](O)c1cccc(Cl)c1 [threohydroxybupropion]
- AUC0-12 relative to that of bupropion [4]: about 7 times
- Cmax relative to that of bupropion [4]: about 5 times
- time post-dose at which Cmax of the metabolite occurs [4]: approximately 4 hours
- apparent elimination half-life of metabolite [4]: ~33 h

Structure (SMILES): CN[C@]1(c2ccccc2Cl)CCCCC1=O [esketamine]
- incidence of sedation (MOAA/S score <5) compared to placebo plus oral antidepressant ([8]; adults with MDD with acute suicidal ideation or behavior, plus oral antidepressant): higher incidence of sedation
- Incidence of Sedation (MOAA/S score <5) ([8]; fixed-dose study, TRD patients <65 years, 56 mg + oral AD): 50%
- Incidence of Sedation (MOAA/S score <5) ([8]; fixed-dose study, TRD patients <65 years, 84 mg + oral AD): 61%
- Incidence of Sedation (MOAA/S score <5) ([8]; flexible-dose study, TRD patients ≥65 years, 28 to 84 mg + oral AD): 49%

Structure (SMILES): CC(NC(C)(C)C)C(O)c1cccc(Cl)c1 (centres unmarked) [erythrohydroxybupropion]
- AUC0-12 relative to that of bupropion [4]: about 1.2 times
- Cmax relative to that of bupropion [4]: approximately equal to
- time post-dose at which Cmax of the metabolite occurs [4]: approximately 4 hours
- apparent elimination half-life of metabolite [4]: ~44 h

Structure (SMILES): COc1ccc2c(c1)[C@]13CCCC[C@@H]1[C@H](C2)N(C)CC3 [Dextromethorphan hydrobromide, morphinan, 3-methoxy-17-methyl-, (9α, 13α, 14α), hydrobromide monohydrate]
- solubility in water [9]: sparingly soluble

Structure (SMILES): C[C@H]1NC(C)(C)CO[C@]1(O)c1cccc(Cl)c1 [hydroxybupropion]
- AUC0-12 relative to that of bupropion [4]: about 19 times
- Cmax relative to that of bupropion [4]: approximately 14 times
- time post-dose at which Cmax of the metabolite occurs [4]: about 3 hours
- apparent elimination half-life of metabolite [4]: approximately 35 hours
